Source: publication PMC4133124 (Clinical pharmacokinetics, 2014)
Read-outs that look alike come from different tables or passages of the source.

Tests used:
[1] = cited from earlier work
[2] = tested on: engraftment of single unit UCB transplants; conditions: single unit UCB HCT, sitagliptin 600 mg OD days −1 to +2; cited from earlier work
[3] = cited from earlier work; remark: listed apart in the source
[4] = Sitagliptin pharmacokinetics published in the literature; format: in vivo, human; conditions: comparison with ref 9
[5] = 600 mg OD, HCT population; ref Farag, S.S. et al. [9]; cited from earlier work
[6] = Sitagliptin plasma pharmacokinetics in adults after single-unit UCB HCT; format: in vivo, human
[7] = 83 mg OD, ref Vincent, S.H. et al. [12]
[8] = 100 mg OD, ref Herman, G.A. et al. [14]
[9] = 100 mg OD, ref Kim, B.H. et al. [13]
[10] = 200 mg BID, ref Herman, G.A. et al. [16]
[11] = 600 mg OD, ref Bergman, A.J. et al. [10]
[12] = 600 mg OD, ref Herman, G.A. et al. [11]
[13] = bootstrap analysis median [5 – 95th percentiles], 200 data sets
[14] = population estimate (RSE%), 600 mg OD oral, HCT patients

## N[C@@H](CC(=O)N1CCn2c(nnc2C(F)(F)F)C1)Cc1cc(F)c(F)cc1F [sitagliptin]
[1]
  protein-bound: 34–46%
[2]
  median time to engraftment: 21 days
[3]; [7]
  AUC0-∞: 2460.15 ng·h/mL
  Cmax: 309.14 ng/mL
[3]; 100 mg OD, ref Bergman, A. et al. [15]
  AUC0-∞: 3470.28 ng·h/mL
[3]; 100 mg OD, ref Bergman, A. et al. [17]
  AUC0-∞: 3217.74 ng·h/mL
[3]; [8]
  AUC0-∞: 3523.23 ng·h/mL
  Cmax: 390.61 ng/mL
[3]; [9]
  AUC0-∞: 2407.23 ng·h/mL
  Cmax: 383.17 ng/mL
[3]; [10]
  AUC0-12 (column AUC0-∞, footnote b): 5987.45 ^b ng·h/mL
  Cmax: 928.66 ng/mL
[3]; [11]
  AUC0-24 (column AUC0-∞, footnote a): 22772.81 ^a ng·h/mL
  Cmax: 3156.65 ng/mL
[3]; [12]
  AUC0-∞: 22402.05 ng·h/mL
  Cmax: 3437.7 ng/mL
[3]; glomerular filtration and active secretion
  renal elimination: 87%
[3]; healthy volunteers and patients with type 2 diabetes mellitus
  administered dose metabolized via CYP3A and 2C8: 16%
[3]; healthy volunteers
  bioavailability: 87%
[4]
  clearance (dose/AUC0-∞) in non-HCT populations lower than in HCT (Farag et al.): 50%
[5]
  AUC0-∞: 11661 ng·h/mL
  Cmax: 1690 ng/mL
[6]; [13]
  VC/F (second line so labelled, row r8): 207.51 [160.11 – 249.82] L
  ka: 0.22 [0.20 – 0.25] h^−1
[6]; human, plasma, po, 600 mg
  Vd/F: 176 L
[6]; in vivo
  sitagliptin pharmacokinetics in the HCT population lower than published profiles: ~ 50%
[6]; [14]
  CL/F, total apparent oral clearance: 84.79 (11.91) L/h
  Q/F, inter-compartmental distribution clearance: 14.29 (13.25) L/h
  VC/F (second line so labelled, row r8): 217.62 (13.19) L
  ka, first order rate constant of absorption: 0.22 (7.47) h^−1
